In PubChem BioAssay (NCI):
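Step 1: Grow cells in 96-well plates. Step 2: Expose to compound for 48 hours at 5 concentrations. Step 3: Interpolate endpoints linearly; if unreached, use highest concentration. TGI: concentration producing complete growth inhibition.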

What was measured:
Test in all cases: NCI tumour cell line growth inhibition, 48 h
COLO 205 colon = system: COLO 205 colon
SK-MEL-28 melanoma = system: SK-MEL-28 melanoma
SF-295 CNS = system: SF-295 CNS
SN12C renal = system: SN12C renal
SK-MEL-2 melanoma = system: SK-MEL-2 melanoma
NCI-H226 lung = system: NCI-H226 lung
NCI-H23 lung = system: NCI-H23 lung
SNB-75 CNS = system: SNB-75 CNS
RPMI-8226 leukemia = system: RPMI-8226 leukemia
UO-31 renal = system: UO-31 renal
SF-539 CNS = system: SF-539 CNS
SNB-19 CNS = system: SNB-19 CNS
MDA-N = system: MDA-N
BT-549 breast = system: BT-549 breast
U251 CNS = system: U251 CNS
IGROV1 ovarian = system: IGROV1 ovarian
ACHN renal = system: ACHN renal
CCRF-CEM leukemia = system: CCRF-CEM leukemia
SR leukemia = system: SR leukemia
HCT-15 colon = system: HCT-15 colon

Measured: TGI

Cc1ccc(S(=O)(=O)N2CCSCCSCCSCCN(S(=O)(=O)c3ccc(C)cc3)CC2)cc1
not listed: CCRF-CEM leukemia | SR leukemia | HCT-15 colon
> 100 µM: all other assays above

O=[N+]([O-])c1cccc2nccc(NCCN3CCOCC3)c12
42.6 µM: SK-MEL-2 melanoma
> 63.5 µM: RPMI-8226 leukemia
25.6 µM: SF-295 CNS
> 64.8 µM: CCRF-CEM leukemia
> 59.4 µM: ACHN renal
46.1 µM: SK-MEL-28 melanoma
61.4 µM: MDA-N
57.2 µM: SF-539 CNS
> 31.4 µM: SR leukemia
> 65.1 µM: NCI-H23 lung
> 46.9 µM: HCT-15 colon
45.1 µM: IGROV1 ovarian
> 48 µM: SN12C renal
47.2 µM: SNB-75 CNS
49 µM: COLO 205 colon
17 µM: NCI-H226 lung
> 100 µM: UO-31 renal | SNB-19 CNS
> 53.9 µM: U251 CNS

COc1cc([C@@H]2c3cc4c(cc3[C@@H](Nc3ccc(Cl)cc3C(=O)c3ccccc3)[C@H]3COC(=O)[C@H]23)OCO4)cc(OC)c1OC
> 29.6 µM: NCI-H23 lung
0.669 µM: SF-539 CNS
> 85.1 µM: SNB-19 CNS
0.576 µM: U251 CNS
> 100 µM: CCRF-CEM leukemia | SN12C renal | SK-MEL-2 melanoma | RPMI-8226 leukemia | UO-31 renal | BT-549 breast | ACHN renal
7.6 µM: IGROV1 ovarian
> 93.6 µM: MDA-N
78.4 µM: SK-MEL-28 melanoma

Nc1ccccc1C(=O)N=Nc1c(O)[nH]c2ccccc12
81 µM: SNB-75 CNS
not listed: SK-MEL-28 melanoma | RPMI-8226 leukemia
> 100 µM: all other assays above

CCOC(=O)c1c[nH]c(C(=O)C=[N+]=[N-])c1C1CCN(CC)C1=S (stereo unspecified)
not listed: SN12C renal | NCI-H226 lung | SF-539 CNS | CCRF-CEM leukemia | SR leukemia
> 100 µM: all other assays above

Cc1ccc(C(=O)Oc2ccccc2)cc1N=NN(C)C
not listed: SNB-75 CNS
> 100 µM: all other assays above

CCOC(=O)C(=CNc1ccc(F)c(F)c1)C(=O)OCC
not listed: SF-295 CNS | BT-549 breast
> 100 µM: all other assays above

O=C(NCCNCCNC(=O)c1cc(-c2ccccc2)nc2ccccc12)c1cc(-c2ccccc2)nc2ccccc12
28.6 µM: BT-549 breast
4.07 µM: U251 CNS
4.85 µM: ACHN renal
7.59 µM: SN12C renal
3.28 µM: SF-295 CNS
8.19 µM: HCT-15 colon
3.25 µM: SK-MEL-28 melanoma
3.13 µM: SK-MEL-2 melanoma
3.8 µM: COLO 205 colon
22.3 µM: NCI-H23 lung
5.37 µM: SR leukemia
3.99 µM: SNB-75 CNS | SF-539 CNS
7.25 µM: IGROV1 ovarian
> 100 µM: CCRF-CEM leukemia
9.16 µM: NCI-H226 lung
24.3 µM: SNB-19 CNS
6.94 µM: UO-31 renal
3.42 µM: MDA-N

CC(=O)/C(=C\I)c1ccccc1
5.37 µM: U251 CNS
3.35 µM: HCT-15 colon
10.4 µM: SK-MEL-28 melanoma
33.7 µM: SF-295 CNS
34.2 µM: SF-539 CNS
20.3 µM: SNB-75 CNS
3.28 µM: MDA-N
4.99 µM: NCI-H23 lung
5.19 µM: CCRF-CEM leukemia
3.14 µM: COLO 205 colon
10.3 µM: UO-31 renal
47.6 µM: NCI-H226 lung
3.39 µM: BT-549 breast
24.5 µM: SNB-19 CNS
4.75 µM: SK-MEL-2 melanoma
4.25 µM: IGROV1 ovarian
5.26 µM: RPMI-8226 leukemia

O=c1c(Sc2c(SCSc3cnc4ccccc4c3Sc3c[nH]c4ccccc4c3=O)cnc3ccccc23)c[nH]c2ccccc12
25 µM: SR leukemia
not listed: SK-MEL-2 melanoma | NCI-H226 lung
> 100 µM: all other assays above

CC(=O)[C@H]1[C@H](O)C[C@@]2(C)[C@@H]3CCc4cc(O)c(OC5OC(CO)C(O)C(O)C5O)cc4C3(C)C(=O)C[C@]12C (stereo partly specified)
not listed: RPMI-8226 leukemia
> 100 µM: all other assays above

CCSC1=N/C(=C\c2ccco2)C(=O)N1
not listed: SF-539 CNS | BT-549 breast
> 100 µM: all other assays above

CC1=CCC(C(C)(C)NC(=O)c2ccccc2)C/C1=N/O (stereo unspecified)
not listed: SK-MEL-2 melanoma | NCI-H226 lung | RPMI-8226 leukemia | ACHN renal | SR leukemia
> 100 µM: all other assays above

CCc1n[nH]c(=O)n1/N=C(\C)c1ccccc1
not listed: SNB-75 CNS | SR leukemia
> 100 µM: all other assays above

O=C(Cn1c2ccc(Br)cc2c2nc3ccccc3nc21)Nc1ccccc1
93.6 µM: NCI-H23 lung
56.2 µM: IGROV1 ovarian
89.4 µM: SNB-75 CNS
73.5 µM: U251 CNS
82.7 µM: NCI-H226 lung
70.5 µM: HCT-15 colon
not listed: SF-539 CNS | SR leukemia
> 100 µM: all other assays above

O=C1NCN(c2ccccc2)C12CCN(CC1COc3ccccc3O1)CC2 (stereo unspecified)
71.4 µM: SNB-75 CNS
79.6 µM: U251 CNS
85.3 µM: SNB-19 CNS
not listed: BT-549 breast
> 100 µM: all other assays above

O=[N+]([O-])c1ccc(-c2nn3c(C45CC6CC(CC(C6)C4)C5)nnc3s2)c(Cl)c1
not listed: BT-549 breast
> 100 µM: all other assays above

COc1ccccc1N/C(SCc1ccccc1)=C(/C(Cl)=C(Cl)Cl)[N+](=O)[O-]
59.6 µM: SF-295 CNS
34.6 µM: UO-31 renal
88.2 µM: RPMI-8226 leukemia
84.2 µM: SNB-75 CNS
49.8 µM: HCT-15 colon
32.9 µM: BT-549 breast
31.7 µM: NCI-H23 lung
33.7 µM: COLO 205 colon
47.3 µM: SN12C renal | U251 CNS
31.1 µM: SF-539 CNS
28.5 µM: SK-MEL-28 melanoma
not listed: IGROV1 ovarian | SR leukemia
> 100 µM: all other assays above

Cn1nnc2c3c(N(CCO)CCO)ccnc3ccc21
not listed: SK-MEL-28 melanoma | NCI-H226 lung | RPMI-8226 leukemia | U251 CNS
> 100 µM: all other assays above

C1CCCN(NC2=NCCO2)CC1
not listed: SK-MEL-28 melanoma | BT-549 breast
> 100 µM: all other assays above

CO/C(=N\N=C\c1ccc(Cl)c(Cl)c1)c1ccncc1
not listed: BT-549 breast
> 10 µM: all other assays above

O=C1Oc2ccccc2C(=O)/C1=C/N1C(=O)CNC1=S
not listed: SNB-75 CNS | SR leukemia
> 100 µM: all other assays above

O=C1OC([C@H](O)c2cccnc2)c2ccccc21 (stereo partly specified)
not listed: BT-549 breast
> 10 µM: all other assays above

COC(=O)C(=O)C(C(=O)C(=O)Nc1ccc(C)cc1C)c1nc2ccc(Cl)cc2[nH]c1=O (stereo unspecified)
not listed: RPMI-8226 leukemia | SR leukemia
> 100 µM: all other assays above

Cc1cn(C2CC(N=[N+]=[N-])C(COP(=O)(O)OCC3OC(n4cc(F)c(=O)[nH]c4=O)CC3O)O2)c(=O)[nH]c1=O (stereo unspecified)
> 79.7 µM: NCI-H23 lung
9.57 µM: IGROV1 ovarian
> 31.6 µM: SNB-19 CNS
> 44 µM: SF-539 CNS
21.6 µM: SNB-75 CNS
not listed: RPMI-8226 leukemia
> 100 µM: all other assays above

C1CSCC2(COC2)CSCCSCC2(COC2)CS1
not listed: SK-MEL-2 melanoma | NCI-H226 lung | RPMI-8226 leukemia | ACHN renal
> 100 µM: all other assays above
